Marks after values point to notes of the source that are not given here.
Assays:
Details in all cases: 100 = 100 % disease control, 0 = no disease control relative to controls
Septoria tritici = experiment: Test D: wheat leaf blotch, preventive spray on wheat seedlings, visual disease rating; format: in vivo
Source text: A dash (−) indicates no test results.

[1] = tested on: Puccinia recondita f. sp. tritici; experiment: Test B: wheat leaf rust, preventive spray on wheat seedlings, visual disease rating
Source text: General protocol for preparing test suspensions for Tests A-I: The test compounds were first dissolved in acetone in an amount equal to 3% of the final volume and then suspended at the desired concentration (in ppm) in acetone and purified water (50/50 mix) containing 250 ppm of the surfactant Trem® 014 (polyhydric alcohol esters). The resulting test suspensions were then used in Tests A-I. Spraying a 200 ppm test suspension to the point of run-off on the test plants was the equivalent of a rate of 500 g/ha.
The test suspension was sprayed to the point of run-off on wheat seedlings. The following day the seedlings were inoculated with a spore suspension of Puccinia recondita f. sp. tritici (the causal agent of wheat leaf rust) and incubated in a saturated atmosphere at 20° C. for 24 h, and then moved to a growth chamber at 20° C. for 7 days, after which time visual disease ratings were made.
All results are for 200 ppm except where followed by “*” which indicates 40 ppm.

Botrytis cinerea = experiment: Test E: tomato Botrytis, preventive spray on tomato seedlings, visual disease rating
Septoria nodorum = experiment: Test C: wheat glume blotch, preventive spray on wheat seedlings, visual disease rating
Description: (An asterisk “*” next to the rating value indicates a 40 ppm test suspension.)
The test suspension was sprayed to the point of run-off on wheat seedlings. The following day the seedlings were inoculated with a spore suspension of Septoria nodorum (the causal agent of wheat glume blotch) and incubated in a saturated atmosphere at 20° C. for 48 h, and then moved to a growth chamber at 20° C. for 7 days, after which time visual disease ratings were made.
A dash (−) indicates no test results. All results are for 200 ppm except where followed by “*” which indicates 40 ppm.

[2] = tested on: Erysiphe graminis f. sp. tritici; experiment: Test A: wheat powdery mildew, preventive spray on wheat seedlings, visual disease rating
Alternaria solani = experiment: Test F: tomato early blight, preventive spray on tomato seedlings, visual disease rating

## CN1OC(C)(c2cccnc2)CC1c1ccc(-n2ccc(-c3ccccc3)n2)cc1 (stereo not drawn) [Compound 41]
Septoria tritici; 40 ppm (marked *)
  Test D disease control rating: 65* %
[1]; 40 ppm (marked *)
  Test B disease control rating: 0* %
Botrytis cinerea; 40 ppm (marked *)
  Test E disease control rating: 0* %
Septoria nodorum; 40 ppm (marked *)
  Test C disease control rating: 0* %
[2]; 40 ppm (marked *)
  Test A disease control rating: 78* %
Alternaria solani; 40 ppm (marked *)
  Test F disease control rating: 0* %

## COc1cc(Br)ccc1C1CC(C)(c2cccnc2)ON1C (stereo not drawn) [Compound 86]
Septoria tritici; 200 ppm
  Test D disease control rating: 76%
[1]; 200 ppm
  Test B disease control rating: 9%
Botrytis cinerea; 200 ppm
  Test E disease control rating: 0%
Septoria nodorum; 200 ppm
  Test C disease control rating: 0%
[2]; 200 ppm
  Test A disease control rating: 91%
Alternaria solani; 200 ppm
  Test F disease control rating: 0%

## CN1OC(C)(c2cccnc2)CC1c1ccc(-n2ccc(-c3ccccc3)n2)cc1 (stereo not drawn) [Compound 40]
Septoria tritici; 40 ppm (marked *)
  Test D disease control rating: 77* %
[1]; 40 ppm (marked *)
  Test B disease control rating: 0* %
Botrytis cinerea; 40 ppm (marked *)
  Test E disease control rating: 75* %
Septoria nodorum; 40 ppm (marked *)
  Test C disease control rating: 64* %
[2]; 40 ppm (marked *)
  Test A disease control rating: 78* %
Alternaria solani; 40 ppm (marked *)
  Test F disease control rating: 0* %

## CN1OC(C)(c2cccnc2)CC1c1cccc(F)c1 (stereo not drawn) [Compound 94]
Septoria tritici; 200 ppm
  Test D disease control rating: 4%
[1]; 200 ppm
  Test B disease control rating: 0%
Botrytis cinerea; 200 ppm
  Test E disease control rating: 0%
Septoria nodorum; 200 ppm
  Test C disease control rating: 0%
[2]; 200 ppm
  Test A disease control rating: 84%
Alternaria solani; 200 ppm
  Test F disease control rating: 0%

## CN1OC(C)(c2cccnc2)CC1c1cccc(Br)c1 (stereo not drawn) [Compound 67]
Septoria tritici; 200 ppm
  Test D disease control rating: 8%
[1]; 200 ppm
  Test B disease control rating: 0%
Botrytis cinerea; 200 ppm
  Test E disease control rating: 34%
Septoria nodorum; 200 ppm
  Test C disease control rating: 0%
[2]; 200 ppm
  Test A disease control rating: 47%
Alternaria solani; 200 ppm
  Test F disease control rating: 0%

## CN1OC(C)(c2cccnc2)CC1c1ccc(-c2ccncc2)cc1 (stereo not drawn) [Compound 60]
Septoria tritici; 40 ppm (marked *)
  Test D disease control rating: 3* %
[1]; 40 ppm (marked *)
  Test B disease control rating: 0* %
Botrytis cinerea; 40 ppm (marked *)
  Test E disease control rating: 29* %
Septoria nodorum; 40 ppm (marked *)
  Test C disease control rating: 0* %
[2]; 40 ppm (marked *)
  Test A disease control rating: 0* %
Alternaria solani; 40 ppm (marked *)
  Test F disease control rating: 0* %

## CN1OC(C)(c2cccnc2)CC1c1ccc(-n2nc(C(F)(F)F)cc2C(F)(F)F)cc1 (stereo not drawn) [Compound 58]
Septoria tritici; 40 ppm (marked *)
  Test D disease control rating: 91* %
[1]; 40 ppm (marked *)
  Test B disease control rating: 0* %
Botrytis cinerea; 40 ppm (marked *)
  Test E disease control rating: 0* %
Septoria nodorum; 40 ppm (marked *)
  Test C disease control rating: 0* %
[2]; 40 ppm (marked *)
  Test A disease control rating: 80* %
Alternaria solani; 40 ppm (marked *)
  Test F disease control rating: 8* %

## CN1OC(c2cccnc2)(C(F)(F)F)CC1c1ccc(-n2ccc(C(F)(F)F)n2)cc1 (stereo not drawn) [Compound 44]
Septoria tritici; 40 ppm (marked *)
  Test D disease control rating: 89* %
[1]; 40 ppm (marked *)
  Test B disease control rating: 19* %
Botrytis cinerea; 40 ppm (marked *)
  Test E disease control rating: 0* %
Septoria nodorum; 40 ppm (marked *)
  Test C disease control rating: 69* %
[2]; 40 ppm (marked *)
  Test A disease control rating: 100* %
Alternaria solani; 40 ppm (marked *)
  Test F disease control rating: 0* %

## CN1OC(C)(c2cccnc2)CC1c1ccc(-n2ccc(-c3cccs3)n2)cc1 (stereo not drawn) [Compound 47]
Septoria tritici; 40 ppm (marked *)
  Test D disease control rating: 42* %
[1]; 40 ppm (marked *)
  Test B disease control rating: 0* %
Botrytis cinerea; 40 ppm (marked *)
  Test E disease control rating: 0* %
Septoria nodorum; 40 ppm (marked *)
  Test C disease control rating: 0* %
[2]; 40 ppm (marked *)
  Test A disease control rating: 35* %
Alternaria solani; 40 ppm (marked *)
  Test F disease control rating: 0* %

## CN1OC(C)(c2cccnc2)CC1c1ccc(-c2ccncc2)cc1 (stereo not drawn) [Compound 61]
Septoria tritici; 40 ppm (marked *)
  Test D disease control rating: 5* %
[1]; 40 ppm (marked *)
  Test B disease control rating: 0* %
Botrytis cinerea; 40 ppm (marked *)
  Test E disease control rating: 0* %
Septoria nodorum; 40 ppm (marked *)
  Test C disease control rating: 0* %
[2]; 40 ppm (marked *)
  Test A disease control rating: 0* %
Alternaria solani; 40 ppm (marked *)
  Test F disease control rating: 0* %

## Cc1cccc(C2CC(C)(c3cccnc3)ON2C)c1 (mixture of isomers) [Compound 98]
Septoria tritici; 40 ppm (marked *)
  Test D disease control rating: 3* %
[1]; 40 ppm (marked *)
  Test B disease control rating: 0* %
Botrytis cinerea; 40 ppm (marked *)
  Test E disease control rating: 0* %
Septoria nodorum; 40 ppm (marked *)
  Test C disease control rating: 0* %
[2]; 40 ppm (marked *)
  Test A disease control rating: 0* %
Alternaria solani; 40 ppm (marked *)
  Test F disease control rating: 0* %

## CN1OC(C)(c2cccnc2)CC1c1ccc(F)c(F)c1 (stereo not drawn) [Compound 81]
Septoria tritici; 200 ppm
  Test D disease control rating: 15%
[1]; 200 ppm
  Test B disease control rating: 0%
Botrytis cinerea; 200 ppm
  Test E disease control rating: 78%
Septoria nodorum; 200 ppm
  Test C disease control rating: 0%
[2]; 200 ppm
  Test A disease control rating: 56%
Alternaria solani; 200 ppm
  Test F disease control rating: 0%

## CN1OC(c2cccnc2)(C(F)(F)F)CC1c1ccc(-n2ccc(C(F)(F)F)n2)cc1 (stereo not drawn) [Compound 45]
Septoria tritici; 40 ppm (marked *)
  Test D disease control rating: 52* %
[1]; 40 ppm (marked *)
  Test B disease control rating: 0* %
Botrytis cinerea; 40 ppm (marked *)
  Test E disease control rating: 0* %
Septoria nodorum; 40 ppm (marked *)
  Test C disease control rating: 0* %
[2]; 40 ppm (marked *)
  Test A disease control rating: 96* %
Alternaria solani; 40 ppm (marked *)
  Test F disease control rating: 0* %

## CN1OC(C)(c2cccnc2)CC1c1ccc(F)c(F)c1 (stereo not drawn) [Compound 82]
Septoria tritici; 200 ppm
  Test D disease control rating: 40%
[1]; 200 ppm
  Test B disease control rating: 18%
Botrytis cinerea; 200 ppm
  Test E disease control rating: 0%
Septoria nodorum; 200 ppm
  Test C disease control rating: 0%
[2]; 200 ppm
  Test A disease control rating: 0%
Alternaria solani; 200 ppm
  Test F disease control rating: 0%

## CN1OC(C)(c2cccnc2)CC1c1ccccc1Br (stereo not drawn) [Compound 65]
Septoria tritici; 200 ppm
  Test D disease control rating: 5%
[1]; 200 ppm
  Test B disease control rating: 0%
Botrytis cinerea; 200 ppm
  Test E disease control rating: 0%
Septoria nodorum; 200 ppm
  Test C disease control rating: 0%
[2]; 200 ppm
  Test A disease control rating: 0%
Alternaria solani; 200 ppm
  Test F disease control rating: 0%

## CN1OC(C)(c2cccnc2)CC1c1ccc(-c2cncnc2)cc1 (stereo not drawn) [Compound 52]
Septoria tritici; 40 ppm (marked *)
  Test D disease control rating: 76* %
[1]; 40 ppm (marked *)
  Test B disease control rating: 0* %
Botrytis cinerea; 40 ppm (marked *)
  Test E disease control rating: 92* %
Septoria nodorum; 40 ppm (marked *)
  Test C disease control rating: 99* %
[2]; 40 ppm (marked *)
  Test A disease control rating: 0* %
Alternaria solani; 40 ppm (marked *)
  Test F disease control rating: 59* %

## CN1OC(C)(c2cccnc2)CC1c1ccc(-n2cc(I)cn2)cc1 (stereo not drawn) [Compound 57]
Septoria tritici; 40 ppm (marked *)
  Test D disease control rating: 57* %
[1]; 40 ppm (marked *)
  Test B disease control rating: 0* %
Botrytis cinerea; 40 ppm (marked *)
  Test E disease control rating: 0* %
Septoria nodorum; 40 ppm (marked *)
  Test C disease control rating: 0* %
[2]; 40 ppm (marked *)
  Test A disease control rating: 0* %
Alternaria solani; 40 ppm (marked *)
  Test F disease control rating: 0* %

## CN1OC(c2cccnc2)CC1c1ccc(-n2ccc(C(F)(F)F)n2)cc1 (stereo not drawn) [Compound 72]
Septoria tritici; 40 ppm (marked *)
  Test D disease control rating: 93* %
[1]; 40 ppm (marked *)
  Test B disease control rating: 100* %
Botrytis cinerea; 40 ppm (marked *)
  Test E disease control rating: 96* %
Septoria nodorum; 40 ppm (marked *)
  Test C disease control rating: 100* %
[2]; 40 ppm (marked *)
  Test A disease control rating: 99* %
Alternaria solani; 40 ppm (marked *)
  Test F disease control rating: 94* %

## CN1OC(C)(c2cccnc2)CC1c1cccc2c1OC(F)(F)O2 (mixture of isomers) [Compound 89]
Septoria tritici; 200 ppm
  Test D disease control rating: 36%
[1]; 200 ppm
  Test B disease control rating: 0%
Botrytis cinerea; 200 ppm
  Test E disease control rating: 0%
Septoria nodorum; 200 ppm
  Test C disease control rating: 0%
[2]; 200 ppm
  Test A disease control rating: 0%
Alternaria solani; 200 ppm
  Test F disease control rating: 16%

## CN1OC(C)(c2cccnc2)CC1c1ccccc1F (stereo not drawn) [Compound 78]
Septoria tritici; 200 ppm
  Test D disease control rating: 16%
[1]; 200 ppm
  Test B disease control rating: 0%
Botrytis cinerea; 200 ppm
  Test E disease control rating: 0%
Septoria nodorum; 200 ppm
  Test C disease control rating: 0%
[2]; 200 ppm
  Test A disease control rating: 0%
Alternaria solani; 200 ppm
  Test F disease control rating: 0%

## CN1OC(C)(c2cccnc2)CC1c1ccc(-c2ccnn2CC(F)(F)F)cc1 (mixture of isomers) [Compound 63]
Septoria tritici; 200 ppm
  Test D disease control rating: 36%
[1]; 200 ppm
  Test B disease control rating: 0%
Botrytis cinerea; 200 ppm
  Test E disease control rating: 0%
Septoria nodorum; 200 ppm
  Test C disease control rating: 0%
[2]; 200 ppm
  Test A disease control rating: 21%
Alternaria solani; 200 ppm
  Test F disease control rating: 8%

## CN1OC(C)(c2cccnc2)CC1c1ccc(Br)cc1F (stereo not drawn) [Compound 96]
Septoria tritici; 200 ppm
  Test D disease control rating: 77%
[1]; 200 ppm
  Test B disease control rating: 0%
Botrytis cinerea; 200 ppm
  Test E disease control rating: 0%
Septoria nodorum; 200 ppm
  Test C disease control rating: 78%
[2]; 200 ppm
  Test A disease control rating: 48%
Alternaria solani; 200 ppm
  Test F disease control rating: 0%

## CN1OC(C)(c2cccnc2)CC1c1ccc(-n2ccc(-c3cccs3)n2)cc1 (stereo not drawn) [Compound 46]
Septoria tritici; 40 ppm (marked *)
  Test D disease control rating: 62* %
[1]; 40 ppm (marked *)
  Test B disease control rating: 0* %
Botrytis cinerea; 40 ppm (marked *)
  Test E disease control rating: 78* %
Septoria nodorum; 40 ppm (marked *)
  Test C disease control rating: 0* %
[2]; 40 ppm (marked *)
  Test A disease control rating: 0* %
Alternaria solani; 40 ppm (marked *)
  Test F disease control rating: 0* %

— US20090270407A1, “FUNGICIDAL ISOXAZOLIDINES” (E. I. DU PONT DE NEMOURS AND COMPANY, priority 2008, published 2009)
